Source: patent US20250235501A1, “Methods and Compositions for Treating or Preventing Neurological Injury or Neurological Disorders” (University of Connecticut, priority 2024, published 2025)

Tests used:
[1] = molecular target: T1, TRPM2 interaction with GluN2b (Rattus norvegicus, UniProt Q00960); assay: Co-IP of TRPM2 with GluN2b in co-transfected HEK293T cells; type: cell-based, human; conditions: 10 μM peptide overnight; IP anti-GluN2b, WB anti-Flag
T1 construct: TRPM2 plasmid a gift 17928; 17924; 17925; host or cells: HEK293T
Protocol: (§1) FIGS. 5A and 5B show the effects of TAT-EE3 on interaction of TRPM2 and NMDARs. Co-IP tests of NMDARs with WT or EE3 domain mutants of TRPM2 (Flag-tagged) in co-transfected HEK293T cells. WT TRPM2 groups were treated with 10 μM TAT-SC or TAT-EE3 overnight. Lysates were IP's with anti-GluN2a (FIG. 5A) or anti-GluN2b (FIG. 5B), and probed by WBs with anti-Flag. IgG was used as control for IP. Similar to the mutants TRPM2-ΔEE3 and TRPM2-EQE, TAT-EE3 disrupted TRPM2 interaction with GluN2a and GluN2b.
(§2) were ordered from GenScript Biotech, and dissolved in PBS to make a stock concentration at 10 mM. HEK-293T cells or isolated neurons were treated with TAT-SC or TAT-EE3 at a concentration of 10 μM for at least 8 h prior to use. Mice were injected with TAT-SC or TAT-EE3 intraperitoneally (ip) at a dose of 100 nmol/kg. […]
(§3) NP-40 lysis buffer ([…], 150 mM NaCl, 1 mM EDTA, 50 mM Tris, pH=8.0) containing proteinase inhibitors (Sigma-Aldrich, 539131-10VL) and phosphatase inhibitors (Thermal Fisher Scientific, 78428) was used to lyse both cultured cells and frozen brain tissue. […] Protein concentration was measured using Pierce™ Rapid Gold BCA Protein Assay Kit (Thermal Fisher Scientific, A53225). […] Then samples were ready for western blotting analysis.

MCAO mice = assay: Middle cerebral artery occlusion (MCAO) ischemic stroke model; type: in vivo, mouse
[2] = molecular target: T2, TRPM2 interaction with GluN2a (Rattus norvegicus, UniProt Q00959); assay: Co-IP of TRPM2 with GluN2a in co-transfected HEK293T cells; type: cell-based, human; conditions: 10 μM peptide overnight; IP anti-GluN2a, WB anti-Flag
T2 construct: TRPM2 plasmid a gift 17928; 17924; 17925; host or cells: HEK293T
Protocol: as §1, §2, §3

[3] = 100 nmol/kg ip 15 mins before MCAO, 24 hrs after MCAO, vs TAT-SC-treated mice
[4] = 1 h MCAO, administered every 12 h, day 1, day 3, and day 7
[5] = FIGS. 18C-18E, pre-MCAO administration i.p. 30 min before MCAO
[6] = post-MCAO treatment, injected right before reopening of the MCA, WT mice

T2 sequence (Q00959 23-1464, other chains not shown): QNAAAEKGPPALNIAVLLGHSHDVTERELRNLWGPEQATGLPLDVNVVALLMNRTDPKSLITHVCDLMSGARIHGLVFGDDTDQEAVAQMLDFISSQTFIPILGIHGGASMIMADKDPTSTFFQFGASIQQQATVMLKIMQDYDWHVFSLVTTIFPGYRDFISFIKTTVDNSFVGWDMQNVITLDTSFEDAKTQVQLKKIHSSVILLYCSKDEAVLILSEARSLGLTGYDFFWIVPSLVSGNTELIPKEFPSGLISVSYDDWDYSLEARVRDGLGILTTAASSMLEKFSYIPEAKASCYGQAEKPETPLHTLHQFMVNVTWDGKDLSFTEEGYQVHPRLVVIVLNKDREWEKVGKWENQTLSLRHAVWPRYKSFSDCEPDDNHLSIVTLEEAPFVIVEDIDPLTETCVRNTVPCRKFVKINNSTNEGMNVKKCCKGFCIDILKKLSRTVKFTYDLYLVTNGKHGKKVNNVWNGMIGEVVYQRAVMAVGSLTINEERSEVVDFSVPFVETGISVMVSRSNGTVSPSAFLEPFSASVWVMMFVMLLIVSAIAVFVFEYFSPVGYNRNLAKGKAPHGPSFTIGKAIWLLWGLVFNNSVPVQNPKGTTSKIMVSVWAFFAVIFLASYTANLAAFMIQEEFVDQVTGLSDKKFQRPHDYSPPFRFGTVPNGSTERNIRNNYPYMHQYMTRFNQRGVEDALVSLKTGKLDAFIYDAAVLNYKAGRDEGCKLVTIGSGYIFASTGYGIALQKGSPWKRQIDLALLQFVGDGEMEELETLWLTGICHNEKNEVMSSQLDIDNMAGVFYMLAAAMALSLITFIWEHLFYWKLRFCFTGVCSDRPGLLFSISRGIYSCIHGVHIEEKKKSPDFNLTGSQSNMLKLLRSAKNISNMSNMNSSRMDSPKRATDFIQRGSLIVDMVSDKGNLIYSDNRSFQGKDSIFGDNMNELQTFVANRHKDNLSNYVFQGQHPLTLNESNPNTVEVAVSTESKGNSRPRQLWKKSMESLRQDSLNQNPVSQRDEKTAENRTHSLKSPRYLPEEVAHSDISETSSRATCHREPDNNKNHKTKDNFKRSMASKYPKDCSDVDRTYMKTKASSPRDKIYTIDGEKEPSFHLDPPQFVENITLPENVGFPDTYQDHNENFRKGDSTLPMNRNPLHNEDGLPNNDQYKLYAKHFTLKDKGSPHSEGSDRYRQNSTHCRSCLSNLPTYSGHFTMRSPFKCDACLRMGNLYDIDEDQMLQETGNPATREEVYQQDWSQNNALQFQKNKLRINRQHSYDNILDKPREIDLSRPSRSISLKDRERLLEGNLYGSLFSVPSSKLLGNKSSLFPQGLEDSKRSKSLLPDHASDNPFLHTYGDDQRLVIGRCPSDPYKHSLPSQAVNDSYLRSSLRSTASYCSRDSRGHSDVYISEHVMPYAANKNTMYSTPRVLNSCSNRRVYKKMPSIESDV
T1 sequence (Q00960 27-1482, other chains not shown): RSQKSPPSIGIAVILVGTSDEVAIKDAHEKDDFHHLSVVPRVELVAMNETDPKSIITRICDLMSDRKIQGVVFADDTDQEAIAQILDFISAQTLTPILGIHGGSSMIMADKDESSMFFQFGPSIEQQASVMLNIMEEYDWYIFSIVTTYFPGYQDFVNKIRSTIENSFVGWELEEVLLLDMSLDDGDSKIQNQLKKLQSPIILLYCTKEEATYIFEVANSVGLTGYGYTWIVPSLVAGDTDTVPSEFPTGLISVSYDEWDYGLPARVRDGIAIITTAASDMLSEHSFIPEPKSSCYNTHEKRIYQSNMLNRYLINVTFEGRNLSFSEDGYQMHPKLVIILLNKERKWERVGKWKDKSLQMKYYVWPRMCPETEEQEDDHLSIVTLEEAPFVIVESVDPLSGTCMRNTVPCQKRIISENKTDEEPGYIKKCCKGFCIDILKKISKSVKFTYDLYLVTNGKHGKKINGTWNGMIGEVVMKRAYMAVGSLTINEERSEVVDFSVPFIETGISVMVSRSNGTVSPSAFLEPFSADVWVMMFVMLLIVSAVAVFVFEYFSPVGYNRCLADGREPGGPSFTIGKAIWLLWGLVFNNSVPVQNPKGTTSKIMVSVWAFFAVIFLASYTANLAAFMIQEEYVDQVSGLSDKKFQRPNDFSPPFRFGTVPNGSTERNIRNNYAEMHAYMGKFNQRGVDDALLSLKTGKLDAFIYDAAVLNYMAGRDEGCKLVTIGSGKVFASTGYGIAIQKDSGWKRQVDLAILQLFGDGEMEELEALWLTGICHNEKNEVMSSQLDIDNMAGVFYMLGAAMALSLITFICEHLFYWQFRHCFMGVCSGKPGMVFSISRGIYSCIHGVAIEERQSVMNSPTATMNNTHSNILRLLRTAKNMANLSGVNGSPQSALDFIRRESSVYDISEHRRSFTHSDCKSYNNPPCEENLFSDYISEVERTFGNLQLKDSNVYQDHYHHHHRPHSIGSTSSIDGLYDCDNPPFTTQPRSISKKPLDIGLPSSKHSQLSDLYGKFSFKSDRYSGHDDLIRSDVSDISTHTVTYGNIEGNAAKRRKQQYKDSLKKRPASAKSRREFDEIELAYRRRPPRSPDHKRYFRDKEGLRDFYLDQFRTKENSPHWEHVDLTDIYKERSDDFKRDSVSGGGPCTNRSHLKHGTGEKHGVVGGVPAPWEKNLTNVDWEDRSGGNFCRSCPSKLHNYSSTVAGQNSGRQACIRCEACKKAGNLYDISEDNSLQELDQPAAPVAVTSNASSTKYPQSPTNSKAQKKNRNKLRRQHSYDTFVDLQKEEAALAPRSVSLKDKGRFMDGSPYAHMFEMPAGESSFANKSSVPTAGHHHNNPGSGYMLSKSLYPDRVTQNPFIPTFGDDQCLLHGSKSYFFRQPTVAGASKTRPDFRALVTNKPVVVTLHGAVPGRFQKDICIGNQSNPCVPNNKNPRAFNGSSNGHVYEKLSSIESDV

In the case of “TAT-EE3: membrane permeable disrupting peptide, sequence YGRKKRRQRRREEDTDSSEEMLALAEE (SEQ ID NO: 4)”, the “interaction of TRPM2 with GluN2b (co-IP)” value [1] is reported as “completely disrupted”, the infarct volume (MCAO mice; [3]) is reported as “significantly reduced” and the neurological behavior scores (MCAO mice; [3]) is reported as “improved”. For the same substance, the “ND scores, long-term MCAO (7 days)” value (MCAO mice; [4]) was “improved”, the “latency to fall time (rotarod test), long-term MCAO” value (MCAO mice; [4]) was “inhibited the reduction” and the infarct volume (MCAO mice; [5]) was “reduced”. For the same substance, the “neurological deficit (ND) score” value (MCAO mice; [5]) was “improved”, the ND score (MCAO mice; [6]) was “improved” and the infarct volume (MCAO mice; [6]) was “reduced”. The “protective effects in nM2KO mice” value (MCAO mice; post-MCAO treatment, neuron-specific TRPM2 knockout mice) was “did not produce further protective effects” and the “interaction of TRPM2 with GluN2a (co-IP)” value [2] was “completely disrupted”.
